Results reported in US20250302080A1, “SWEETNESS AND/OR FLAVOR ENHANCER” (AJINOMOTO CO., INC., priority 2022, published 2025).

What was measured:
[1] = Sensory evaluation of yogurt flavor intensity in yogurt drink (Experimental Example 14); conditions: added alone, 3.0 points or more
Method: (§1) Yogurt drink (product name: 7 Premium Yogurt Drink, SEVEN-ELEVEN JAPAN CO., LTD.) was diluted 1.2 times with filtered water to prepare negative control yogurt drink.
(§2) When the carbohydrate content of 7 Premium Yogurt Drink is calculated as the total sucrose content, the negative control yogurt drink contains 10.75 g of sucrose per 100 g.
(§3) A sensory evaluation of sweetness intensity and yogurt flavor intensity was performed for each sample by a panel of three experts according to the following evaluation criteria.
(§4) Sweetness intensity and yogurt flavor intensity were each evaluated by 0.0 to 10.0 point based on the following reference samples (negative control (hereinafter referred to as NC) (0.0 point); reference 1 (hereinafter referred to as R1) (5.0 points); reference 2 (hereinafter referred to as R2) (10.0 points)). The average score (rounded to two decimal places) of each expert panelist was calculated. An average score of 3.0 points or more was considered to be functional. • NC (0.0 point): yogurt drink (product name: 7 Premium Yogurt Drink, SEVEN-ELEVEN JAPAN CO., LTD.) diluted 1.2 times with filtered water. • R1 (5.0 points): with 0.54 g of sucrose added per 99.46 g of NC. • R2 (10.0 points): with 1.08 g of sucrose added per 98.92 g of NC.

[2] = Sensory evaluation of black tea au lait flavor intensity (Experimental Example 15); conditions: added alone; for black tea au lait flavor-enhancing effect (in words): 0.0001-1000 ppb
Method: Instant black tea au lait powder (product name: Blendy (registered trademark) Stick Black Tea Au Lait (Ajinomoto AGF, Inc.)) was prepared according to the instructions, and then diluted 1.2 times with filtered water to prepare negative control black tea au lait.
When the carbohydrate content of Blendy (registered trademark) Stick Black Tea Au Lait is calculated as the total sucrose content, the negative control black tea au lait contains 5.2 g of sucrose per 100 g.
A sensory evaluation of sweetness intensity and black tea au lait flavor intensity was performed for each sample by a panel of three experts according to the following evaluation criteria.
Sweetness intensity and black tea au lait flavor intensity were each evaluated by 0.0 to 10.0 point based on the following reference samples (negative control (hereinafter referred to as NC) (0.0 point); reference 1 (hereinafter referred to as R1) (5.0 points); reference 2 (hereinafter referred to as R2) (10.0 points)). The average score (rounded to two decimal places) of each expert panelist was calculated. An average score of 3.0 points or more was considered to be functional. • NC (0.0 point): black tea au lait (product name: Black Tea Au Lait, Ajinomoto AGF, Inc.) prepared according to the instructions, and then diluted 1.2 times with filtered water (i.e., negative control black tea au lait). • R1 (5.0 points): with 0.26 g of sugar added per 99.74 g of NC. • R2 (10.0 points): with 0.52 g of sugar added per 99.48 g of NC.

[3] = Sensory evaluation of sweetness intensity in sucrose-containing cafe au lait (Experimental Examples 6-10); conditions: added alone, 3.0 points or more
Method: The starting materials were mixed according to the blending rate in Table 6 to prepare a cafe au lait containing sucrose (hereinafter referred to as “negative control cafe au lait”).
A sensory evaluation of the presence or absence of sweetness intensity enhancement was performed for each sample by a panel of four experts according to the following evaluation criteria.
Sweetness intensity was evaluated by 0.0 to 10.0 point based on the following reference samples (negative control (hereinafter referred to as NC) (0.0 point); reference 1 (hereinafter referred to as R1) (5.0 points); reference 2 (hereinafter referred to as R2) (10.0 points)). The average score (rounded to two decimal places) of each expert panelist was calculated. An average score of 3.0 points or more was considered to be functional. • NC (0.0 point): cafe au lait prepared by mixing starting materials at the blending rate in Table 6 (i.e., negative control cafe au lait). • R1 (5.0 points): drink with 0.15 g of sucrose added per 99.85 g of NC. • R2 (10.0 points): drink with 0.30 g of sucrose added per 99.70 g of NC.
A sensory evaluation of sweetness intensity was performed for each sample by a panel of four experts according to the same evaluation criteria as in Experimental Example 6.
A sensory evaluation of the presence or absence of sweetness intensity enhancement was performed for each sample by a panel of four experts according to the same evaluation criteria as in Experimental Example 6.

[4] = Sensory evaluation of sweetness intensity in orange drink (Experimental Examples 1-5); conditions: added alone, score (average) of 3.0 points or more
Method: A negative control orange drink was prepared by diluting an orange drink (product name: Bireley's Orange, 20% wt % orange juice, Asahi Soft Drinks Co., Ltd.) 1.2 times with filtered water.
When the carbohydrate content of Bireley's Orange is calculated as the total sucrose content, the negative control orange drink contains 9.17 g of sucrose per 100 g.
A sensory evaluation of sweetness intensity was performed for each sample by a panel of four experts according to the following evaluation criteria.
Sweetness intensity was evaluated by 0.0 to 10.0 point based on the following reference samples (negative control (hereinafter referred to as NC) (0.0 point); reference 1 (hereinafter referred to as R1) (5.0 points); reference 2 (hereinafter referred to as R2) (10.0 points)). The average score (rounded to two decimal places) of each expert panelist was calculated. An average score of 3.0 points or more was considered to be functional. • NC (0.0 point): orange drink (trade name: Bireley's Orange, Asahi Soft Drinks Co., Ltd.) diluted 1.2 times with filtered water (i.e., negative control orange drink). • R1 (5.0 points): with 0.46 g of sucrose added per 99.54 g of NC. • R2 (10.0 points): with 0.92 g of sucrose added per 99.08 g of NC.
A sensory evaluation of sweetness intensity was performed for each sample by a panel of four experts according to the same evaluation criteria as in Experimental Example 1.

[5] = Sensory evaluation of sweetness intensity in yogurt drink (Experimental Example 14); conditions: added alone, 3.0 points or more
Method: as §1, §2, §3, §4

[6] = Sensory evaluation of sweetness intensity in RebA solution (Experimental Example 12); conditions: added alone, 3.0 points or more
Method: A negative control RebA solution (0.073 wt % […] solution) was prepared by dissolving RebA in filtered water.
A sensory evaluation of sweetness intensity was performed for each sample by a panel of three experts according to the following evaluation criteria.
Sweetness intensity was evaluated by 0.0 to 10.0 points based on the following reference samples (negative control (hereinafter referred to as NC) (0.0 point); reference 1 (hereinafter referred to as R1) (5.0 points); reference 2 (hereinafter referred to as R2) (10.0 points)). The average score (rounded to two decimal places) of each expert panelist was calculated. An average score of 3.0 points or more was considered to be functional. • NC (0.0 point): 0.073 wt % RebA solution (solvent: filtered water) • R1 (5.0 points): 0.077 wt % RebA solution (solvent: filtered water) • R2 (10.0 points): 0.080 wt % RebA solution (solvent: filtered water)

SMILES | concentration at which a yogurt flavor-enhancing effect was confirmed [1] [ppb] | concentration at which a black tea au lait flavor-enhancing effect was confirmed ([2]; 3.0 points or more) [ppb] | concentration at which a sweetness-enhancing effect was confirmed [3] [ppb] | concentration at which a sweetness-enhancing effect was confirmed [4] [ppb] | concentration at which a sweetness-enhancing effect was confirmed [5] [ppb] | concentration at which a sweetness-enhancing effect was confirmed [6] [ppb] | black tea au lait flavor-enhancing effect (in words) [2]
CC(C)CCC(=O)O [4-methylpentanoic acid] | ≥ 0.1 | ≥ 1 | ≥ 0.1 | ≥ 10 | ≥ 1 | 100 | 
CC1=C(O)C(=O)CC1 [cyclotene] | ≥ 0.01 |  | ≥ 0.1 | ≥ 0.1 | ≥ 0.01 | 10 | concentration-dependent black tea au lait flavor-enhancing effect
CCCCCCCCCC(=O)O [decanoic acid] | ≥ 0.01 |  | ≥ 1 | ≥ 0.1 | ≥ 0.1 | 10 | concentration-dependent black tea au lait flavor-enhancing effect
